Like-named read-outs stand apart in the source and are kept apart here.
Columns and labels:
monkey GLP-1R = assay: Agonistic activity on GLP-1R of different species (LANCE Ultra cAMP assay): monkey; format: cell-based; conditions: ratio of EC50 value of other species to human EC50 value
Description: The in vitro agonistic activity of the compound of the present invention on GLP-1R was measured in cells stably expressing human, dog, mouse, rat, rabbit, and monkey GLP-1R (human GLP-1R-HEK, dog GLP-1R-HEK, mouse GLP-1R-HEK, rat GLP-1R- in HEK, rabbit GLP-1R-CHO, monkey GLP-1R-HEK cells). Human GLP-1R-HEK, dog GLP-1R-HEK, mouse GLP-1R-HEK, rat GLP-1R-HEK, rabbit GLP-1R-CHO, and monkey GLP-1R-HEK cells were resuspended in 1×Casein Stimulation Buffer (HBSS, 5 mM HEPES, 0.5 mM IBMX, 0.1% casein, pH7.4), and seeded into a 384-well cell culture plate at 9 µL/well (cell numbers being 1000, 1000, 1000, 1500, 1000, 1000 cells/well, respectively). 1 µL of 1×Casein Stimulation Buffer containing 10× compound was added to the above-mentioned 384-well cell culture plate. The plate was incubated at 37 °C for 30 minutes. After the incubation was completed, 5 µL of Eu-cAMP working solution and 5 µL of Ulight^TM-cAMP working solution were added sequentially, centrifuged and then incubated at room temperature for 1 hour. The readings at 665 nm and 620 nm were determined with a 330 nm excitation light on a microplate reader. The 665 nm/620 nm reading ratio was calculated. […] GraphPad was used to perform nonlinear regression according to the response percentage and the concentration of the compound added to obtain the EC50 value for each compound.

[1] = Pharmacokinetics in beagle dogs; format: in vivo; conditions: for MRT: beagle
Description: After subcutaneous administration to beagle dogs, plasma was collected and the drug concentration in plasma was determined to illustrate the in vivo pharmacokinetic properties of the compound according to the present invention. The compound of the present invention was administered to a beagle dog (7-9 kg) at a dose of 0.05mg/kg subcutaneously (s.c.). About 500 µL of whole blood was collected from the saphenous vein into an EDTA-K2 anticoagulant tube at predose, 0.5 hours, 1 hour, 2 hours, 6 hours, 10 hours, 24 hours, 48 hours, 72 hours and 96 hours, respectively. The blood samples were centrifuged at 3000 g and at 2°C to 8°C for 10 minutes to obtain plasma, which was stored at -90°C to -60°C for further analysis and assay.
20.0 µL of thawed plasma sample was taken. […] Then 120 µL of 0.1% formic acid in methanol was added to precipitate the protein. The mixture was vortexed for 5 minutes, and centrifuged at 4815g for 10 minutes. 100.0 µL of the supernatant was taken, into which 100 µL of 0.5% aqueous formic acid solution was added. The mixture was vortexed for 5 minutes. 10 µL of the mixture solution was sampled and injected into the LC-MS/MS to determine the drug concentration in plasma.
Based on the drug concentration in plasma of the compound in the beagle dogs, the pharmacokinetic parameters were calculated by applying the software Winnolin 8.3 in a non-compartmental model. Table 11 Average pharmacokinetic parameters after single subcutaneous administration in beagle dogs

DIO mice = assay: Weight loss effect in DIO mice obesity model; format: in vivo; set-up: Cumulative food intake / Fasting blood glucose / Insulin / Serum TC / ALT: unit not given here; conditions: for Insulin resistance index / Serum TC / Fasting blood glucose / Insulin / Body weight / Cumulative food intake / Liver Weight / ALT: Mean±SEM, 10 mice; for Insulin: D30 serum; for Body weight / Cumulative food intake / Liver Weight / Total abdominal fat: s.c. once every 3 days for 4 weeks; for Total abdominal fat: sum of perirenal and paratesticular fat; for ALT: serum
Description: In this study, 26-week-old male DIO mice were used. DIO mice were housed in appropriate cages. DIO mice were housed in an environment-monitored and well-ventilated SPF-grade animal room, with the temperature maintained between 20 and 26°C and relative humidity between 40% and 70%. […] The mice received food and water ad libitum. […] The mice were subcutaneously administrated once every 3 days for 4 consecutive weeks. […] Food intake was measured once daily after administration. RBG was measured before grouping and at 48 h after each administration. After fasted for 5 h on D30 (no water deprivation was required), FBG and glycated hemoglobin A1c (HbA1c) were detected, and blood was collected intravenously to separate the serum. A mouse insulin ELISA kit was used to detect the insulin content in the serum, and a biochemistry analyser was used to detect total cholesterol (TC), TG, low-density lipoprotein cholesterol (LDL), high-density lipoprotein cholesterol (HDL), free fatty acid (FFA), ALT, and aspartate aminotransferase (AST) content. The liver was collected, the perirenal and paratesticular fat tissues were separated and weighed, the organ-body ratio was calculated. The liver was stained with HE and Oil Red O for pathological scoring. The data results were statistically analyzed using one-way analysis of variance (ANOVA). A Levene's test was performed to test for variance homogeneity. If the result was homogeneous (P>0.05), a one-way analysis of variance (ANOVA) would be performed. […] In the case of heterogeneity of variance (P ≤0.05 ), a Dunnett's T3 test would be performed. Results were expressed as mean and standard deviation (Mean ± SEM). The test level was 0.05. Both statistical significance and biological significance were considered when analyzing the results.

[2] = beagle dogs, single subcutaneous administration, 0.05mg/kg
[3] = dog, in vivo, sc, beagle dogs, single subcutaneous administration, 0.05mg/kg
[4] = 0.3 nmol/kg s.c. once every 3 days
[5] = 1 nmol/kg s.c. once every 3 days
[6] = 3 nmol/kg s.c. once every 3 days
[7] = 30 nmol/kg s.c. once every 3 days

## CC[C@H](C)[C@H](NC(=O)C(C)(C)NC(=O)[C@H](Cc1ccc(O)cc1)NC(=O)[C@H](CC(=O)O)NC(=O)[C@H](CO)NC(=O)[C@@H](NC(=O)C(C)(Cc1ccccc1)NC(=O)[C@@H](NC(=O)CNC(=O)[C@H](CCC(=O)O)NC(=O)C(C)(C)NC(=O)[C@@H](N)Cc1ccc(O)cc1)[C@@H](C)O)[C@@H](C)O)C(=O)NC(C)(C)C(=O)N[C@@H](CC(C)C)C(=O)N[C@@H](CC(=O)O)C(=O)N[C@@H](CCCCN)C(=O)N[C@@H](CCC(N)=O)C(=O)N[C@@H](C)C(=O)N[C@@H](CCC(N)=O)C(=O)N[C@@H](C)C(=O)N[C@@H](CCC(=O)O)C(=O)N[C@@H](Cc1ccccc1)C(=O)N[C@H](C(=O)N[C@@H](CCCCNC(=O)COCCOCCNC(=O)COCCOCCNC(=O)COCCOCCNC(=O)CC[C@H](NC(=O)CCCCCCCCCCCCCCCCCCCCC(=O)O)C(=O)O)C(=O)N[C@@H](Cc1c[nH]c2ccccc12)C(=O)N[C@@H](CC(C)C)C(=O)N[C@@H](CC(C)C)C(=O)N[C@@H](CCCCN)C(=O)NCC(=O)NCC(=O)N1CCC[C@H]1C(=O)N[C@@H](CO)C(=O)N[C@@H](CO)C(=O)NCC(=O)N[C@@H](C)C(=O)N1CCC[C@H]1C(=O)N1CCC[C@H]1C(=O)N1CCC[C@H]1C(=O)N[C@@H](CO)C(=O)N[C@@H](CCCCN)C(N)=O)C(C)C (stereo partly drawn) [Compound P016]
Monkey GLP-1R
  GLP-1R EC50 ratio: 2.66
[1]; [2]
  AUC(0-t): 29.925 µg·h/mL
  Cmax: 0.40733 µg/mL
  Tmax: 19.33 h
[1]; dog, in vivo, sc, 0.05 mg/kg, MRT0-inf
  MRT: 108 ± 23.2 h
[1]; dog, in vivo, sc, 0.05 mg/kg, MRT0-t
  MRT: 44.8 ± 4.17 h
[1]; dog, in vivo, sc, 0.05 mg/kg
  T1/2: 69.32 h
[1]; [3]
  AUC(0-inf): 52.1 ± 14.7 µg·h/mL
  half-life: 69.3 ± 14 h
[1]; dog, in vivo, sc, beagle dogs, single subcutaneous administration, 0.05mg/kg, read-out: AUC0-t
  AUC(0-t): 29.9 ± 5.66 µg·h/mL
[1]; dog, in vivo, sc, beagle dogs, single subcutaneous administration, 0.05mg/kg, read-out: Cmax
  Cmax: 0.407 ± 0.0458 µg/mL
[1]; dog, in vivo, sc, beagle dogs, single subcutaneous administration, 0.05mg/kg, read-out: Tmax
  Tmax: 19.3 ± 8.08 h
DIO mice; [4]
  Insulin resistance index: 43.94±6.288
  Serum TC: 4.07±0.26
  Insulin: 3.285±0.481
  ALT: 95.60±14.09
DIO mice; [5]
  Insulin resistance index: 21.532±3.705
  Serum TC: 3.26±0.20
  Insulin: 1.911±0.29
  ALT: 43.90±3.86
DIO mice; [6]
  Insulin resistance index: 11.991±1.907
  Serum TC: 2.61±0.13
  Insulin: 1.196±0.185
  ALT: 52.80±9.62
DIO mice; [7]
  Insulin resistance index: 5.179±1.178
  Serum TC: 2.50±0.18
  Insulin: 0.624±0.130
  ALT: 49.60±5.67
DIO mice; D30, 0.3 nmol/kg s.c. once every 3 days
  Fasting blood glucose: 13.78±0.39
DIO mice; D30, 1 nmol/kg s.c. once every 3 days
  Fasting blood glucose: 11.23±0.40
DIO mice; D30, 3 nmol/kg s.c. once every 3 days
  Fasting blood glucose: 10.36±0.67
DIO mice; D30, 30 nmol/kg s.c. once every 3 days
  Fasting blood glucose: 8.39±0.30
DIO mice; 0.3 nmol/kg
  Body weight: 45.4 ± 1.3 g
  Cumulative food intake: 75.75±2.81
  Liver Weight: 1.552 ± 0.106 g
  Total abdominal fat: 2.631 ± 0.069 g
DIO mice; 1 nmol/kg
  Body weight: 38.3 ± 1.1 g
  Cumulative food intake: 61.40±1.58
  Liver Weight: 1.191 ± 0.075 g
  Total abdominal fat: 1.849 ± 0.181 g
DIO mice; 3 nmol/kg
  Body weight: 34.1 ± 0.7 g
  Cumulative food intake: 55.47±2.72
  Liver Weight: 1.069 ± 0.029 g
  Total abdominal fat: 0.972 ± 0.076 g
DIO mice; 30 nmol/kg
  Body weight: 29 ± 0.7 g
  Cumulative food intake: 48.38±2.31
  Liver Weight: 0.995 ± 0.029 g
  Total abdominal fat: 0.461 ± 0.034 g

Reference: patent publication EP4813403A1, “USE OF GLP-1R/GIPR DOUBLE-TARGET AGONIST IN PREPARING ANIMAL DRUG” (Hangzhou Zhongmeihuadong Pharmaceutical Co., Ltd., priority 2023, dated 2025)
